Series [1] concerns Hepatitis C virus. Kind of series: Inhibition of hepatitis C virus internal ribosome entry site-mediated translation in human Huh7 cells preincubated for 4 hrs in presence of fetal calf serum by bicistronic luciferase reporter gene assay. In kind it is functional, organism-based. Conditions: Hepacivirus hominis; Huh-7.
Series [2] has as its system Hepatitis C virus. Kind of series: Inhibition of hepatitis C virus internal ribosome entry site-mediated translation in human Huh7 cells at 1 uM preincubated for 4 hrs in presence of fetal calf serum by bicistronic luciferase reporter gene assay. In kind it is functional, Hepacivirus hominis. As to conditions: Huh-7.
Series [3] is described as follows: Cytotoxicity against human Huh7 cells at 0.1 to 2 uM. In kind it is cell-based. As to conditions: huh-7, 2 µM.
Series [4] deals with Hepatitis C virus. Description: Inhibition of hepatitis C virus internal ribosome entry site-mediated translation in human Huh7 cells at 2 uM preincubated for 4 hrs in presence of fetal calf serum by bicistronic luciferase reporter gene assay. In kind it is functional, Hepacivirus hominis. Conditions: Huh-7.

Each structure is given as a SMILES string. Activity calls are given as the source filed them. The calls are words filed in the database; no cut-off is given here.

Take `CO[C@@H]1[C@H](OP(=O)(O)O)[C@@H](COP(=O)(O)O[C@H]2[C@@H](OC)[C@H](n3cnc4c(=O)[nH]c(N)nc43)O[C@@H]2COP(=O)(O)O[C@H]2[C@@H](OC)[C@H](n3cnc4c(=O)[nH]c(N)nc43)O[C@@H]2COP(=O)(O)O[C@H]2[C@@H](OC)[C@H](n3ccc(N)nc3=O)O[C@@H]2COP(=O)(O)O[C@H]2[C@@H](OC)[C@H](n3ccc(=O)[nH]c3=O)O[C@@H]2COP(=O)(O)O[C@H]2[C@@H](OC)[C@H](n3ccc(N)nc3=O)O[C@@H]2COP(=O)(O)O[C@H]2[C@@H](OC)[C@H](n3cnc4c(N)ncnc43)O[C@@H]2COP(=O)(O)O[C@H]2[C@@H](OC)[C@H](n3ccc(=O)[nH]c3=O)O[C@@H]2COP(=O)(O)O[C@H]2[C@@H](OC)[C@H](n3ccc(N)nc3=O)O[C@@H]2COP(=O)(O)O[C@H]2[C@@H](OC)[C@H](n3cnc4c(N)ncnc43)O[C@@H]2COP(=O)(O)O[C@H]2[C@@H](OC)[C@H](n3ccc(N)nc3=O)O[C@@H]2COP(=O)(O)O[C@H]2[C@@H](OC)[C@H](n3cnc4c(N)ncnc43)O[C@@H]2COP(=O)(O)OP(=O)(O)O[C@H]2[C@@H](OC)[C@H](n3cnc4c(N)ncnc43)O[C@@H]2COP(=O)(O)O[C@H]2[C@@H](OC)[C@H](n3ccc(N)nc3=O)O[C@@H]2COP(=O)(O)O[C@H]2[C@@H](OC)[C@H](n3ccc(N)nc3=O)O[C@@H]2COP(=O)(O)O[C@H]2[C@@H](OC)[C@H](n3ccc(N)nc3=O)O[C@@H]2COP(=O)(O)O[C@H]2[C@@H](OC)[C@H](n3cnc4c(N)ncnc43)O[C@@H]2COP(=O)(O)O)O[C@H]1n1ccc(N)nc1=O`: the result in the series on Hepatitis C virus [1] was inactive.
`CO[C@@H]1[C@H](OP(=O)(O)O)[C@@H](COP(=O)(O)O[C@H]2[C@@H](OC)[C@H](n3cnc4c(=O)[nH]c(N)nc43)O[C@@H]2COP(=O)(O)O[C@H]2[C@@H](OC)[C@H](n3cnc4c(=O)[nH]c(N)nc43)O[C@@H]2COP(=O)(O)O[C@H]2[C@@H](OC)[C@H](n3ccc(N)nc3=O)O[C@@H]2COP(=O)(O)O[C@H]2[C@@H](OC)[C@H](n3ccc(=O)[nH]c3=O)O[C@@H]2COP(=O)(O)O[C@H]2[C@@H](OC)[C@H](n3ccc(N)nc3=O)O[C@@H]2COP(=O)(O)O[C@H]2[C@@H](OC)[C@H](n3cnc4c(N)ncnc43)O[C@@H]2COP(=O)(O)O[C@H]2[C@@H](OC)[C@H](n3ccc(=O)[nH]c3=O)O[C@@H]2COP(=O)(O)O[C@H]2[C@@H](OC)[C@H](n3ccc(N)nc3=O)O[C@@H]2COP(=O)(O)O[C@H]2[C@@H](OC)[C@H](n3cnc4c(N)ncnc43)O[C@@H]2COP(=O)(O)O[C@H]2[C@@H](OC)[C@H](n3ccc(N)nc3=O)O[C@@H]2COP(=O)(O)O[C@H]2[C@@H](OC)[C@H](n3cnc4c(N)ncnc43)O[C@@H]2COP(=O)(O)OP(=O)(O)O[C@H]2[C@@H](OC)[C@H](n3cnc4c(N)ncnc43)O[C@@H]2COP(=O)(O)O[C@H]2[C@@H](OC)[C@H](n3ccc(N)nc3=O)O[C@@H]2COP(=O)(O)O[C@H]2[C@@H](OC)[C@H](n3ccc(N)nc3=O)O[C@@H]2COP(=O)(O)O[C@H]2[C@@H](OC)[C@H](n3ccc(N)nc3=O)O[C@@H]2COP(=O)(O)O[C@H]2[C@@H](OC)[C@H](n3cnc4c(N)ncnc43)O[C@@H]2COP(=O)(O)O[C@H]2C[C@H](n3cc(C)c(=O)[nH]c3=O)O[C@@H]2CN2C=C(CO[C@H]3CC[C@@]4(C)C(=CC[C@H]5[C@@H]6CC[C@H]([C@H](C)CCCC(C)C)[C@@]6(C)CC[C@@H]54)C3)NN2)O[C@H]1n1ccc(N)nc1=O`: the results for the Activity entry (in the series on Hepatitis C virus [1]; in series [3]) were “Dose-dependent effect” and “Non-toxic”, respectively. Besides, the inhibition at 1 µM in the series on Hepatitis C virus [2] was determined as 50%.
With `CCCCCCCCCCCCCCCCCCOCC1=CN(C[C@H]2O[C@@H](n3cc(C)c(=O)[nH]c3=O)C[C@@H]2OP(=O)(O)OC[C@H]2O[C@@H](n3cnc4c(N)ncnc43)[C@H](OC)[C@@H]2OP(=O)(O)OC[C@H]2O[C@@H](n3ccc(N)nc3=O)[C@H](OC)[C@@H]2OP(=O)(O)OC[C@H]2O[C@@H](n3ccc(N)nc3=O)[C@H](OC)[C@@H]2OP(=O)(O)OC[C@H]2O[C@@H](n3ccc(N)nc3=O)[C@H](OC)[C@@H]2OP(=O)(O)OC[C@H]2O[C@@H](n3cnc4c(N)ncnc43)[C@H](OC)[C@@H]2OP(=O)(O)OP(=O)(O)OC[C@H]2O[C@@H](n3cnc4c(N)ncnc43)[C@H](OC)[C@@H]2OP(=O)(O)OC[C@H]2O[C@@H](n3ccc(N)nc3=O)[C@H](OC)[C@@H]2OP(=O)(O)OC[C@H]2O[C@@H](n3cnc4c(N)ncnc43)[C@H](OC)[C@@H]2OP(=O)(O)OC[C@H]2O[C@@H](n3ccc(N)nc3=O)[C@H](OC)[C@@H]2OP(=O)(O)OC[C@H]2O[C@@H](n3ccc(=O)[nH]c3=O)[C@H](OC)[C@@H]2OP(=O)(O)OC[C@H]2O[C@@H](n3cnc4c(N)ncnc43)[C@H](OC)[C@@H]2OP(=O)(O)OC[C@H]2O[C@@H](n3ccc(N)nc3=O)[C@H](OC)[C@@H]2OP(=O)(O)OC[C@H]2O[C@@H](n3ccc(=O)[nH]c3=O)[C@H](OC)[C@@H]2OP(=O)(O)OC[C@H]2O[C@@H](n3ccc(N)nc3=O)[C@H](OC)[C@@H]2OP(=O)(O)OC[C@H]2O[C@@H](n3cnc4c(=O)[nH]c(N)nc43)[C@H](OC)[C@@H]2OP(=O)(O)OC[C@H]2O[C@@H](n3cnc4c(=O)[nH]c(N)nc43)[C@H](OC)[C@@H]2OP(=O)(O)OC[C@H]2O[C@@H](n3ccc(N)nc3=O)[C@H](OC)[C@@H]2OP(=O)(O)O)NN1`, the Activity result was “Dose-dependent effect” with Hepatitis C virus [1] and “Non-toxic” in series [3]. Besides, the inhibition at 2 µM in the series with Hepatitis C virus [4] stood at 50%.

The values above are taken from ChEMBL document CHEMBL1155820, “Lipid-conjugated oligonucleotides via "click chemistry" efficiently inhibit hepatitis C virus translation” (J Med Chem, 2008).
